Here are results for 1 molecule from patent US20220220135A1 (BAR-ILAN UNIVERSITY, priority 2019, published 2022).

The data set has as its target T1, NTPDase1 (Homo sapiens, UniProt P49961).
T1 sequence (P49961 1-510): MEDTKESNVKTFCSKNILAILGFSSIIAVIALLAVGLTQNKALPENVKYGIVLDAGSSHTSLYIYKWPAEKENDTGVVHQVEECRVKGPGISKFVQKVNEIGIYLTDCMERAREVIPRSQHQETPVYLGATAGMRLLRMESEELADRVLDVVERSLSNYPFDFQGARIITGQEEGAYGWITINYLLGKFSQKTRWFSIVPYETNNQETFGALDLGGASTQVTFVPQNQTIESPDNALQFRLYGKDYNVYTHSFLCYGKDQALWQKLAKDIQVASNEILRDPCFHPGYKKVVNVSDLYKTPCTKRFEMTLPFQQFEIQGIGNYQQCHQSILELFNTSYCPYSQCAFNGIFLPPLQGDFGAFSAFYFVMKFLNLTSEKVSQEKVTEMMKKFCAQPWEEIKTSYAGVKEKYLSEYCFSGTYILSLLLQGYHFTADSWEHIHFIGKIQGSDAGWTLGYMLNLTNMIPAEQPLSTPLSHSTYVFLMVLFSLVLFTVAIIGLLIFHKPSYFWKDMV
Briefly: Stability to hydrolysis by human NTPDase1. Type of data set: in vitro ADME. Conditions: analogue 100 μM; activity with 100 μM ATP = 100%. On the procedure: Uridine 5′-Pα,α-phosphorodithioate analogues, 9-12, were tested for their stability to degradation by NPP1 and NTPDases. These enzymes are involved in the metabolism of extracellular nucleotides. Analogues 9-12 were not hydrolyzed by hNPP1 (Table 2). […] Analogue 10 was hydrolyzed by hNTPDase1, -2 and -3 at 30-39% the rate of ATP and was slightly hydrolyzed by human NTPDase8 at 16% the rate of ATP.
Analogues 9-12 were incubated in the presence of the indicated ectonucleotidase at a concentration of 100 μM. The activity with 100 μM ATP was set as 100%, which was 329±108, 302±34, 263±51, 195±76 nmol of Pi·min−1·mg of protein−1 for NTPDase1, -2, -3 and -8, respectively, and 34±7 nmol for NPP1. Data presented are the mean±SEM of results from two experiments.

For `O=c1ccn([C@@H]2O[C@H](COP(=S)(S)OP(=O)(O)OP(=O)(O)O)[C@@H](O)[C@H]2O)c(=O)[nH]1` (stereo partly shown) [Analogue 10], the “Relative activity (%) ± SEM of ATP hydrolysis, NTPDase1” value came to 30.8 ± 3.2%.
